The test system of data set [1] is Common cutworm (Spodoptera litura). In kind it is in vivo. The note with it: 500 ppm; cabbage leaf immersed about 30 seconds; second-instar larvae; eight days after the inoculation; 25° C. The text has this:
Insecticidal Effect on Common cutworm (Spodoptera litura)

The test system of data set [2] is diamond back moth (Plutella xylostella). In kind it is in vivo. The note with it: 1,000 ppm; Chinese cabbage seedling with eggs immersed about 30 seconds; counted six days after the immersion; 25° C. The text has this:
Insecticidal effect on diamond back moth (Plutella xylostella)
Adult diamond back moths were released and allowed to oviposit on a Chinese cabbage seedling. […] Six days after the immersion, the hatched insects were counted. […] [formula] Criterion • A - - - Mortality 100% • B - - - Mortality 99-90% • C - - - Mortality 89-80% • D - - - Mortality 79-50%

For `CSCC(C)(C)NC(=O)c1c(I)cccc1C(=O)Nc1cnc(C(F)(C(F)(F)F)C(F)(F)F)nc1C` [Q32-19], the “insecticidal effect (activity ranking by mortality)” value (from here on “insecticidal effect”) in data set [1] and in data set [2] was “B or higher” in each case.

Turning to `C[S+]([O-])CC(C)(C)NC(=O)c1c(I)cccc1C(=O)Nc1cccnc1C(F)(C(F)(F)F)C(F)(F)F` (stereo not shown) [Q27-238], the “insecticidal effect” value in data set [1] and in data set [2] was “B or higher” each time.

For `CSCC(C)NC(=O)c1c(I)cccc1C(=O)Nc1ccc(OC(F)(F)C(F)OC(F)(F)C(F)(F)C(F)(F)F)nc1Cl` (stereo not shown) [Q27-407], the “insecticidal effect” value in data set [1] and in data set [2] was “B or higher” each time.

Take `CSCC(C)(C)NC(=O)c1c(I)cccc1C(=O)Nc1ccc(OC(F)(F)C(F)F)nc1C` [Q27-384]: the “insecticidal effect” value in data set [1] and in data set [2] was “B or higher” in each case.

For `CC(C)(CS(C)(=O)=O)NC(=O)c1c(I)cccc1C(=O)Nc1cccnc1C(F)(C(F)(F)F)C(F)(F)F` [Q27-239], the “insecticidal effect” value in data set [1] and in data set [2] was “B or higher” in each case.

On to `Cc1nc(OC(C(F)(F)F)C(F)(F)F)ccc1NC(=O)c1cccc(C(F)(F)F)c1C(=O)NC(C)(C)C` [Q27-355], for which the “insecticidal effect” value in data set [1] and in data set [2] was “B or higher” each time.

In the case of `CC(C)NC(=O)c1c(I)cccc1C(=O)Nc1ccc(C(F)(C(F)(F)F)C(F)(F)F)nc1Cl` [Q27-230], the “insecticidal effect” value in data set [1] and in data set [2] was “B or higher” throughout.

For `Cc1nc(OC(C(F)(F)F)C(F)(F)F)ccc1NC(=O)c1cccc(Cl)c1C(=O)NC(C)(C)C` [Q27-298], the “insecticidal effect” value in data set [1] and in data set [2] was “B or higher” each time.

Take `Cc1nc(OC(C(F)(F)F)C(F)(F)F)ccc1NC(=O)c1ccccc1C(=O)NC(C)(C)C[S+](C)[O-]` (stereo not shown) [Q27-289]: the “insecticidal effect” value in data set [1] and in data set [2] was “B or higher” in each case.

For the compound `Cc1nc(Oc2ccc(C(F)(F)F)cc2)ccc1NC(=O)c1cccc(I)c1C(=O)NC(C)C` [Q27-466], the “insecticidal effect” value in data set [1] was “B or higher”.

In the case of `CCN(CC)C(=O)c1c(I)cccc1C(=O)Nc1ccc(C(F)(C(F)(F)F)C(F)(F)F)nc1Cl` [Q27-231], the “insecticidal effect” value in data set [1] and in data set [2] was “B or higher” each time.

As to `Cc1nc(C(F)(C(F)(F)F)C(F)(F)F)ccc1NC(=O)c1cccc(I)c1C(=O)NC(C)(C)CS(C)(=O)=O` [Q27-155], the “insecticidal effect” value in data set [1] and in data set [2] was “B or higher” throughout.

On to `CC(C)NC(=O)c1c(I)cccc1C(=O)Nc1ccc(OC(F)(F)C(F)F)nc1Cl` [Q27-387], for which the “insecticidal effect” value in data set [1] and in data set [2] was “B or higher” throughout.

`CSCC(C)(C)NC(=O)c1c(I)cccc1C(=O)Nc1ccc(C(F)(C(F)(F)F)C(F)(F)F)nc1SC` [Q27-245]: the “insecticidal effect” value in data set [1] and in data set [2] was “B or higher” in each case.

With `CC(C)NC(=O)c1c(Cl)cccc1C(=O)Nc1ccc(C(F)(C(F)(F)F)C(F)(F)F)nc1Cl` [Q27-459], the “insecticidal effect” value in data set [1] is recorded as “B or higher”.

For `CC(C)(CS(C)(=O)=O)NC(=O)c1c(I)cccc1C(=O)Nc1ccc(C(F)(C(F)(F)F)C(F)(F)F)nc1Cl` [Q27-236], the “insecticidal effect” value in data set [1] and in data set [2] was “B or higher” throughout.

For `CSCC(C)(C)NC(=O)c1c(C(=O)Nc2ccc(OC(C(F)(F)F)C(F)(F)F)nc2C)cccc1C(F)(F)F` [Q27-359], the “insecticidal effect” value in data set [1] and in data set [2] was “B or higher” each time.

As to `CCNC(=O)c1c(I)cccc1C(=O)Nc1cnc(C(F)(C(F)(F)F)C(F)(F)F)cn1` [Q34-46], the “insecticidal effect” value in data set [1] and in data set [2] was “B or higher” each time.

Consider `CSCC(C)(C)NC(=O)c1c(I)cccc1C(=O)Nc1ccc(C(F)(C(F)(F)F)C(F)(F)F)nc1Cl` [Q27-234], for which the “insecticidal effect” value in data set [1] and in data set [2] was “B or higher” throughout.

`COc1nc(C(F)(C(F)(F)F)C(F)(F)F)ccc1NC(=O)c1cccc(I)c1C(=O)NC(C)CSC` (stereo not shown) [Q27-241]: the “insecticidal effect” value in data set [1] and in data set [2] was “B or higher” throughout.

`CSCC(C)(C)NC(=O)c1c(I)cccc1C(=O)Nc1ccc(C(F)(C(F)(F)F)C(F)(F)F)nc1` [Q27-233]: the “insecticidal effect” value in data set [1] and in data set [2] was “B or higher” each time.

With `Cc1nc(OC(F)(F)C(F)F)ccc1NC(=O)c1cccc(I)c1C(=O)NC(C)C` [Q27-378], the “insecticidal effect” value in data set [1] and in data set [2] was “B or higher” throughout.

On to `CSCC(C)NC(=O)c1c(I)cccc1C(=O)Nc1ccc(OCC(F)(F)C(F)(F)F)nc1C` (stereo not shown) [Q27-414], for which the “insecticidal effect” value in data set [1] and in data set [2] was “B or higher” each time.

`Cc1nc(OC(F)(F)C(F)OC(F)(F)C(F)(F)C(F)(F)F)ccc1NC(=O)c1cccc(I)c1C(=O)NC(C)C` (stereo not shown) [Q27-397]: the “insecticidal effect” value in data set [1] and in data set [2] was “B or higher” each time.

As for `Cc1nc(OC(C(F)(F)F)C(F)(F)F)ccc1NC(=O)c1cccc([N+](=O)[O-])c1C(=O)NC(C)C` [Q27-347], the “insecticidal effect” value in data set [1] and in data set [2] was “B or higher” throughout.

In the case of `CC(C)(CS(C)(=O)=O)NC(=O)c1c(I)cccc1C(=O)Nc1ccc(OC(C(F)(F)F)C(F)(F)F)nc1Cl` [Q27-267], the “insecticidal effect” value in data set [1] and in data set [2] was “B or higher” throughout.

For `Cc1nc(OC(C(F)(F)F)C(F)(F)F)ccc1NC(=O)c1ccc(Cl)c(Cl)c1C(=O)NC(C)C[S+](C)[O-]` (stereo not shown) [Q27-335], the “insecticidal effect” value in data set [1] and in data set [2] was “B or higher” throughout.

`CSc1nc(C(F)(C(F)(F)F)C(F)(F)F)ccc1NC(=O)c1cccc(I)c1C(=O)NC(C)C` [Q27-246]: the “insecticidal effect” value in data set [1] and in data set [2] was “B or higher” in each case.

On to `CSCC(C)NC(=O)c1c(I)cccc1C(=O)Nc1ccc(C(F)(C(F)(F)F)C(F)(F)F)nc1Cl` (stereo not shown) [Q27-232], for which the “insecticidal effect” value in data set [1] and in data set [2] was “B or higher” in each case.

On to `Cc1nc(OCC(F)(F)C(F)(F)F)ccc1NC(=O)c1cccc(I)c1C(=O)NC(C)C` [Q27-413], for which the “insecticidal effect” value in data set [1] and in data set [2] was “B or higher” throughout.

Regarding `CSCC(C)(C)NC(=O)c1c(I)cccc1C(=O)Nc1cnc(C(F)(C(F)(F)F)C(F)(F)F)cc1C` [Q27-150], the “insecticidal effect” value in data set [1] and in data set [2] was “B or higher” in each case.

With `CSCC(C)(C)NC(=O)c1c(I)cccc1C(=O)Nc1ccc(C(F)(C(F)(F)F)C(F)(F)F)nc1C` [Q27-243], the “insecticidal effect” value in data set [1] and in data set [2] was “B or higher” in each case.

As to `Cc1cc(C(F)(C(F)(F)F)C(F)(F)F)cnc1NC(=O)c1cccc(I)c1C(=O)NC(C)C` [Q26-11], the “insecticidal effect” value in data set [1] and in data set [2] was “B or higher” each time.

With `COc1nc(C(F)(C(F)(F)F)C(F)(F)F)ccc1NC(=O)c1cccc(I)c1C(=O)NC(C)C` [Q27-242], the “insecticidal effect” value in data set [1] and in data set [2] was “B or higher” each time.

Take `CSCC(C)(C)NC(=O)c1c(C(=O)Nc2ccc(OC(C(F)(F)F)C(F)(F)F)nc2C)cccc1[N+](=O)[O-]` [Q27-352]: the “insecticidal effect” value in data set [1] and in data set [2] was “B or higher” in each case.

`Cc1nc(OC(C(F)(F)F)C(F)(F)F)ccc1NC(=O)c1cccc([N+](=O)[O-])c1C(=O)NC(C)(C)CS(C)(=O)=O` [Q27-353]: the “insecticidal effect” value in data set [1] and in data set [2] was “B or higher” throughout.

Take `CSCC(C)(C)NC(=O)c1c(I)cccc1C(=O)Nc1ccc(OC(F)(F)C(F)F)nc1Cl` [Q27-388]: the “insecticidal effect” value in data set [1] and in data set [2] was “B or higher” each time.

In the case of `Cc1nc(C(F)(C(F)(F)F)C(F)(F)F)ccc1NC(=O)c1cccc(I)c1C(=O)NC(C)(C)C[S+](C)[O-]` (stereo not shown) [Q27-244], in data set [2], the “insecticidal effect” value is “B or higher”.

Regarding `CC(C)NC(=O)c1cccc(Cl)c1C(=O)Nc1nc(C(F)(F)F)cs1` [Q8-13], the “insecticidal effect” value in data set [2] is “B or higher”.

As for `Cc1cc(NC(=O)c2cccc([N+](=O)[O-])c2C(=O)NC(C)C)n(C)n1` [Q6-6], in data set [2], the “insecticidal effect” value was “B or higher”.

For `Cc1cc(C(F)(C(F)(F)F)C(F)(F)F)ncc1NC(=O)c1cccc(I)c1C(=O)NC(C)(C)C[S+](C)[O-]` (stereo not shown) [Q27-152], in data set [1], the “insecticidal effect” value was “B or higher”.

For the origin of these results see patent US6875768B1, “Phthalamide derivatives, intermediates in the production thereof, and agricultural/horticultural insecticides and method for using the same” (Nihon Nohyako Co., Ltd., priority 1999, dated 2005).
